Results reported in patent publication US5037841A, “1,3-disubstituted pyrrolidines” (Bayer Aktiengesellschaft, priority 1988, dated 1991).
Where a name gives a salt, the structure may show the parent alone.

Target: T1, 5-HT1 receptor (Bos taurus, UniProt F6Q2H9)
T1 construct: calf hippocampus membrane preparations; from tissue; host or cells: calf hippocampus membranes
T1 sequence (F6Q2H9 1-422): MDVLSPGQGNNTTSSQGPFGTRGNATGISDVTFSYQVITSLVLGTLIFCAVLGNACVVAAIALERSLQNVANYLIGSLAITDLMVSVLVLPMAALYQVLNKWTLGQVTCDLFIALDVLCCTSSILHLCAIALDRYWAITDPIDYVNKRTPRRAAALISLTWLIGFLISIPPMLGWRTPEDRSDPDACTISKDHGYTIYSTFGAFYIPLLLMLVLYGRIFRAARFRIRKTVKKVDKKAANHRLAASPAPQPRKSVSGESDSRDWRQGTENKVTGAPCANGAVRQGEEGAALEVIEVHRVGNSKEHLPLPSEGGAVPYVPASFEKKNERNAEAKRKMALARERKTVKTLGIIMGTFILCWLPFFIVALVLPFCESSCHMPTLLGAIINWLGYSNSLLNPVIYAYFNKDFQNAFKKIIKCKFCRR
Experiment: Affinity for the 5-HT1 receptor: receptor binding studies using calf hippocampus membrane preparations, 3H-serotonin as radioligand
Settings: Comparison compound of DE-A 1,964,511; test conditions not restated; read-out: Ki value (comparison compound)
Source text: Affinity for the 5-HT1 receptor
The high affinity of the compound according to the invention for 5-hydroxytryptamine receptors of the subtype […] is represented by way of example in Table 4. The values indicated are data which have been determined from receptor binding studies using calf hippocampus membrane preparations. For this purpose, ^3 H-serotonin was used as a radioactively labelled ligand.

Structure (SMILES)	Ki [nM]
COc1ccccc1OC1CCN(C(C)C)C1 (stereo not shown) [Comparison, reference compound]	1000

Same assay, conditions: calf hippocampus membranes; 3H-serotonin radioligand; read-out: Ki

Structure (SMILES)	Ki [nM]
N#Cc1ccccc1OC1CCN(CCCCN2C(=O)c3ccccc3S2(=O)=O)C1 (stereo not shown) [Example 1, 3-(2-Cyanophenoxy)-1-[4-(1,1-dioxido-3-oxo-2,3-dihydrobenzisothiazol-2-yl)butyl]-pyrrolidine oxalate]	2
COc1ccccc1OC1CCN(CCCCN2C(=O)c3ccccc3S2(=O)=O)C1 (stereo not shown) [Example 8, 3-(2-methoxyphenoxy)-1-[4-(1,1-dioxido-3-oxo-2,3-dihydrobenzisothiazol-2-yl)butyl]-pyrrolidine]	1.3
NC(=O)c1ccccc1OC1CCN(CCCCN2C(=O)c3ccccc3S2(=O)=O)C1 (stereo not shown) [Example 19, 3-(2-carbamoylphenoxy)-1-[4-(1,1-dioxido-3-oxo-2,3-dihydrobenzisothiazol-2-yl)butyl]-pyrrolidine]	7
O=C1c2ccccc2S(=O)(=O)N1CCCCN1CCC(Oc2cccc3ccccc23)C1 (stereo not shown) [Example 23, 3-(1-naphthyloxy)-1-[4-(1,1-dioxido-3-oxo-2,3-dihydrobenzisothiazol-2-yl)butyl]-pyrrolidine]	0.3
O=C1c2ccccc2S(=O)(=O)N1CCCCN1CCC(Oc2ccccc2)C1 (stereo not shown) [Example 6]	9
COc1cccc(OC2CCN(CCCCN3C(=O)c4ccccc4S3(=O)=O)C2)c1 (stereo not shown) [Example 10, 3-(3-methoxyphenoxy)-1-[4-(1,1-dioxido-3-oxo-2,3-dihydrobenzisothiazol-2-yl)butyl]-pyrrolidine]	6
